Measurements taken from PMC5327789 (Journal of natural products, 2016).

Columns and labels:
[1] = test system: P. falciparum strain Dd2 (chloroquine-resistant); test: P. falciparum in vitro growth inhibition assay; format: cell-based, Plasmodium falciparum; settings: for antiplasmodial activity in words: highest concentration tested 25 μM
[2] = test system: WI-38 cell line (normal embryonic lung tissue); format: cell-based

`C=C1[C@@H]2C[C@@H]2[C@]2(C)[C@@H]3CC4=C5[C@H](/C(=C(\C)C(=O)OC)C(=O)[C@H](O)[C@@]5(C)[C@@H]5C[C@H]45)[C@@]34OC(=O)C(C)=C4C[C@@H]12` [Compound 32, shizukaol A] was tested, and the “antiplasmodial activity in words” value [1] was “micromolar range”.

For shizukaol C [Compound 17], the IC50 ([2]; read-out: WI-38 IC50, WI-38 cell line, 24 h incubation) was 770 nM and the IC50 ([1]; read-out: P. falciparum IC50, Table 6) was 21 nM.

With `COC(=O)/C(C)=C1\C(=O)[C@H](O)[C@]2(C)C3=C(C[C@@H]4[C@]5(OC(=O)C(C)=C5C[C@H]5[C@H](COC(C)=O)[C@H]6C[C@H]6[C@]45C)[C@H]31)[C@H]1C[C@H]12` [Compound 25, shizukaol E] the “antiplasmodial activity in words” value [1] was “micromolar range”.

With `C/C=C(\C)C(=O)OC[C@]1(O)[C@H]2C[C@H]2[C@]2(C)[C@@H]3C[C@@]4(O)C5=C(/C(=C(\C)C(=O)OC)C(=O)[C@H](O)[C@@]5(C)[C@@H]5C[C@@H]54)[C@@]34OC(=O)C(COC(C)=O)=C4C[C@@H]12` [Compound 27, sarcandrolide E] the “antiplasmodial activity in words” value [1] was “inactive”.

`COC(=O)/C(C)=C1\C(=O)[C@H](O)[C@]2(C)C3=C(C[C@@H]4[C@]5(OC(=O)C6=C5C[C@H]5[C@](O)(COC(=O)/C(C)=C/COC(=O)[C@@H](O)CC(=O)OC6)[C@H]6C[C@H]6[C@]45C)[C@H]31)[C@H]1C[C@H]12` [Compound 29, shizukaol G] was tested, and the “increase of toxicity toward mammalian cells compared with counterpart” value ([2]; human, 24 h) was ~ 10 fold.

For `COC(=O)/C(C)=C1/C(=O)[C@H](O)[C@]2(C)C3=C(C[C@@H]4[C@]5(OC(=O)C6=C5C[C@H]5[C@](O)(COC(=O)/C=C(\C)COC(=O)CCC(=O)OC6)[C@H]6C[C@H]6[C@]45C)[C@H]31)[C@H]1C[C@H]12` [Compound 7, Fortunilide G], the “decrease of mammalian cytotoxicity compared with counterpart” value ([2]; human, 24 h) was 5 fold.

With `COC(=O)CCC(=O)OC/C(C)=C/C(=O)OC[C@]1(O)[C@H]2C[C@H]2[C@]2(C)[C@@H]3C[C@@]4(OO)C5=C(/C(=C(\C)C(=O)OC)C(=O)[C@H](O)[C@@]5(C)[C@@H]5C[C@@H]54)[C@@]34OC(=O)C(CO)=C4C[C@@H]12` [Compound 4, Fortunilide D] the “increase of toxicity toward mammalian cells compared with counterpart” value ([2]; human, 24 h) was 6 fold.
